Where a SMILES comes first, the peptide text is derived from it. The star is where a group is joined. MeOSuc = COC(=O)CCC(=O)*; CH2Cl = ClC*
How the values were obtained:
U-937 cells = assay: siRNA transfection, KCN-induced necrosis of U-937 cells, LDH release; assay type: cell-based, human; conditions: U-937, 7 hours KCN; FIG. 4A
elastase-like activity [1] = assay: Elastase-like activity in lysates of siRNA-treated cells exposed to KCN; assay type: cell-based; conditions: KCN 10 mM 30 minutes; FIG. 5A
PC12 cells [2] = assay: siRNA transfection, KCN-induced necrosis of PC12 cells, LDH release; assay type: cell-based, rat; conditions: PC12, 5 hours KCN; FIG. 4C
Cathepsin C = Cathepsin C activity in lysates of siRNA-treated cells exposed to KCN; assay type: cell-based; conditions: KCN 10 mM 30 minutes; FIG. 5B
PC12 cells [3] = assay: KCN-induced necrosis of PC12 cells, LDH release; assay type: cell-based, rat; conditions: for inhibition at 0.0001 µM / inhibition at 0.001 µM / inhibition at 0.01 µM / inhibition at 0.1 µM / inhibition at 1 µM: Rattus norvegicus, PC-12, 5 h, KCN, PC12, LDH release (Table 5); for inhibition at 0.0001 µM: 0.1 nM, read-out: % protection at 0.1 nM; for inhibition at 0.001 µM: 1 nM, read-out: % protection at 1 nM; for inhibition at 0.01 µM: 10 nM, read-out: % protection At 10 nM; for inhibition at 0.1 µM: read-out: % protection at 0.1 μM; for inhibition at 1 µM: read-out: % protection at 1 μM
Procedure: The rat pheochromocytoma PC12 cell line was propagated in DMEM medium (Beit Haemek, Israel), supplemented with 5% heat-inactivated calf serum, 10% heat-inactivated horse serum, 2 mM L-glutamine, 100 U/ml penicillin and 100 μg/ml streptomycin. PC12 cells in logarithmic phase were seeded at a concentration of 1.2×10^5/well in 96-well plates and incubated overnight.
Thereafter, the cells were washed twice and maintained in RPMI-1640 (U-937cells) and DMEM (PC-12 cells) glucose-free medium, supplemented with 2 mM pyruvate and 10% dialyzed FCS for one hour. Then cells were treated with or without KCN (Merck, Germany) at the indicated concentrations for 7 hours (U-937 cells), or for 5 hours (PC12 cells).
Elastase inhibitors II (MeOSuc-AAPA-CMK) and elastase inhibitor III (MeOSuc-AAPV-CMK) were purchased from Calbiochem-Novabiochem, USA. Compound Gly-Phe diazomethylketone was purchased from MP Biomedicals, USA. All the compounds disclosed in Table 1 hereinabove were purchased from ChemDiv, San Diego, CA. The compounds were dissolved in DMSO and were administered 30 min before addition of the cell death inducer. The final concentration of DMSO, added to all samples, was 0.1%, which had no effect by itself siRNA and cell transfection
The amount of LDH released from lysed cells is a sensitive measure of cell death. Necrotic cell death was measured in 96-well plates using Promega CytoTox 96 LDH assay kit. LDH content from the cells lysed in 0.1% Triton X-100 for 10 min was used as an index of total LDH. The LDH released in culture medium was used as an index of necrotic cell death and the percentage from total LDH was calculated. The protection by the inhibitor was calculated based on comparing percentage of LDH release in the presence and in the absence of the inhibitor. The inhibitors were also added to totals, blanks and controls. Absorbance at 490 nm was measured by ELISA reader (BioTec).
These compounds were tested for their ability to inhibit necrosis induced by KCN in PC12 cells. The necrotic mode of cell death in this system was validated as previously described. PC12 cells were challenged with KCN as described above. The protective results of the compounds against KCN-induced necrosis assessed using LDH release method are shown below in Table 5. The IC50 values of these inhibitors is in the range of tens to single nanomolar.

[4] = tested on: C57BL/6J mice, closed head trauma; assay: Closed head injury (traumatic brain injury) in mice; assay type: in vivo, mouse
Procedure: The closed head injury method was used to determine the effect of the elastase inhibitor on the development of brain necrosis and on the neurological status assessed using the neurological severity score (NSS). NSS test was performed 1 hour after trauma. During NSS test, various reflexes, ability to move, beam balance, beam walk and other behavior parameters like seeking and exiting from a cycle were monitored. Development of necrosis was measured by assessing necrotic space in brain slices stained with 2,3,5-triphenyl-2H-tetrazolium chloride (TTC).
C57BL/6J mice weighing 40+4 g (mean±SD) were used in the study. A weight-drop device was used to deliver a shock to the scull resulting in a controlled cerebral injury. Impact was delivered by a silicone-coated 5 mm metal tip extruding from a platform that falls down a frame. This model of cranial injury has been used in previous studies [Feldman Z et al., J Neurosurg (1995) 83:1060-1066; Shapira Y et al., J Neurosurg Anesthesiol (1995) 7:17-25].). All animal procedures and care techniques were approved by the Ben-Gurion University of the Negev Committee for the Ethical Care and Use of Animals in Research.
Mice were prepared for surgery by anesthetization with isoflurane and allowed to breathe spontaneously. Maintenance of adequate anesthesia for the experimental procedure was confirmed by loss of corneal reflexes. Once the corneal reflexes were abolished, a midline scalp incision was made and the scalp and underlying muscles were moved laterally. Closed head trauma (CHT) was delivered to the skull over the frontal portion of the left cerebral hemisphere. 1 minute after the trauma 100 μg of elastase inhibitor II or III in its vehicle (DMSO solution), were injected intracerebraspinaly by direct delivery into the cisterna magna. The vehicle itself was previously found to have no effect.
In addition to the wild type C57BL/6J mice, neutrophil elastase knockout mice strain B6.129X1-Elane were also examined. All procedures were approved by the Ethics Committee of Ben-Gurion University of Negev.

elastase-like activity [5] = assay: Elastase-like activity in lysates of KCN-treated U-937 cells (MAAPV substrate); assay type: biochemical, human; conditions: treatment of intact cells
PC12 cells [6] = assay: Rescue of KCN-treated PC12 cells, XTT viability up to 48 h; assay type: cell-based, rat; conditions: 5 h KCN, then full DMEM 24 or 48 hours; FIG. 7C
[7] = tested on: C57BL/6J mice, acetaminophen hepatotoxicity; assay: APAP-induced liver toxicity in mice; assay type: in vivo, mouse; conditions: IP 4 hours after APAP 300 mg/kg; measured 24 hours; dose dependent
Procedure: Wild type C57BL/6J mice weighing 23+3 grams were used, 6 mice per treatment. The mice were obtained from Harlan (Israel). All animal procedures and care techniques were approved by the Ben-Gurion University of the Negev Committee for the Ethical Care and Use of Animals in Research. Mice were fast for 16h prior to administration of a single intraperitoneal (i. p.) dose of acetaminophen (N-acetyl-p-aminophenol) APAP (300 mg/kg). 4 hours after the APAP injection, the mice were injected i. p. with the tested compound, dissolved in vehicle (20% DMSO in PBS). The control mice were injected with the vehicle only. 24h after APAP injection, the mice were sacrificed and blood collected from the heart. Heparin was used as an anti-clotting additive for plasma collection. The plasma samples were centrifuged at 4000 g at room temperature for 10 min. The supernatant was collected for measurement of ALT and AST levels. The enzyme levels were measured with an autoanalyzer in Soroka's Biochemistry Medical Center.

[8] = tested on: Balb/c mice, myocardial ischemia/reperfusion; assay: Myocardial ischemia/reperfusion in mice; assay type: in vivo, mouse; conditions: 30 mg/kg IV 20 min before ischemia and at reperfusion; 30 min ischemia, 6 h reperfusion
Procedure: Male Balb/c mice (20-25 g; Charles River; Milan; Italy) were housed in a controlled environment and provided with standard rodent chow and water.
Mice were subjected to 30 minutes of myocardial ischemia and 6 hours of reperfusion, using published methodologies (Yet et al, 2001). Study groups consisted of sham, vehicle control, and inhibitor (n=8/group, see below). Briefly, mice were anesthetized with pentobarbital sodium (60 mg/kg body weight) with additional doses given as needed to maintain anesthesia. Mice were intubated and mechanically ventilated with 100% oxygen. Mice received a first IV dose of the active inhibitor 1-(2-(4-methylpiperazin-1-yl)-4,5-dihydro-1H-imidazol-1-yl)propan-1-one (M059-0891) (30 mg/kg) and their chest was opened. […] The area of necrosis, as a % of AAR was quantified. […]
After the reperfusion period, 1 mL/kg of a 4% thioflavin S solution is injected IV in order to delineate the no-reflow area. […] The areas of ischemic and nonischemic regions are computed and expressed as a percentage of the slice, as are the % of necrotic and non-necrotic tissue. […] AAR (unstained blue area) is expressed as a percentage of the LV mass. The extent of necrosis is calculated as a percentage of the LV mass, and the infarct size expressed as a percentage of the AAR (infarct size=extent of necrosis/extent of AAR).

Compound | protection against KCN-induced necrosis, LDH release (U-937 cells) | elastase-like activity of cell lysates (elastase-like activity [1]) | protection against cyanide induced cell death, LDH release (PC12 cells [2]) | Cathepsin C activity of cell lysates (Cathepsin C) | inhibition at 0.0001 µM (PC12 cells [3]) | inhibition at 0.001 µM (PC12 cells [3]) | inhibition at 0.01 µM (PC12 cells [3]) | inhibition at 0.1 µM (PC12 cells [3]) | inhibition at 1 µM (PC12 cells [3]) | also measured
siRNA for CELA3A: siRNA for CELA3A, CTGCCTTTGGCTGCAACTTCA (SEQ ID NO: 3), Qiagen (listed as DNA, chemistry not given here) | partial protection | stable and significant decrease | significant protective effect | no effect |  |  |  |  |  | 
COC(=O)CCC(=O)N[C@@H](C)C(=O)N[C@@H](C)C(=O)N1CCC[C@H]1C(=O)N[C@@H](C)C(=O)CCl [EI II, MeOSuc-AAPA-CMK] (MeOSuc-AAPA-CH2Cl) |  |  |  |  |  |  |  |  |  | KCN-induced necrotic cell death assessed by LDH release (PC12 cells [3]; PC12, KCN 5 hours, FIGS. 6, 7A-B): inhibited in a dose dependent manner; inhibition of necrosis induced by KCN at high concentrations (PC12 cells [3]; up to 300 μM): significantly inhibited necrosis; effect of inhibitor by itself on PC-12 cells (PC12 cells [3]; up to 300 μM, without KCN): inactive by themselves; neurological severity score (NSS) ([4]; 100 μg into cisterna magna 1 min after trauma, 1 hour post injury): significantly reduce neurological damage; space of necrotic tissue, TTC staining ([4]; 100 μg into cisterna magna, untreated traumatized 50%): 25 % of the damaged hemisphere; induction of elastase-like enzymatic activity in intact cells (elastase-like activity [5]): abrogated the induction; cell viability (XTT) after KCN treatment (PC12 cells [6]): protective effect
siRNA for CELA1: siRNA for CELA1, CGGCAACATGCTGGTCCTTTA (SEQ ID NO: 2), Qiagen (listed as DNA, chemistry not given here) | partial protection | stable and significant decrease | significant protective effect | no effect |  |  |  |  |  | 
siRNA for Cathepsin C: siRNA for Cathepsin C silencing, ATGATCTGCATCAGTTGTAAA (SEQ ID NO: 1), Qiagen (listed as DNA, chemistry not given here) | protective effect |  | significant protective effect | stable and significant decrease |  |  |  |  |  | 
O=C(c1csc(N2CCCCC2)n1)N1CCCC1 [Z601-4253, (2-(piperidin-1-yl)thiazol-4-yl)(pyrrolidin-1-yl)methanone] |  |  |  |  | 29% | 34% | 61% | 74% | 100% | ALT level in blood [7]: significantly reduced; AST level in blood [7]: significantly reduced
CCC(=O)N1CCN=C1N1CCN(C)CC1 [M059-0891, 1-(2-(4-methylpiperazin-1-yl)-4,5-dihydro-1H-imidazol-1-yl)propan-1-one] |  |  |  |  | 25% | 36% | 55% | 84% | 85% | necrosis and infarct size [8]: significant reduction
